Where “and” joins values, the source holds several entries; their conditions need not be identical. Identical values can stand only once. Like-named read-outs stand apart in the source and are kept apart here.
How the values were obtained:
[1] = system: Dirofilaria immitis L3/L4; test: Dirofilaria immitis L3/L4 motility assay (DiroImager, 72 h); settings: Dirofilaria immitis L4
rat VAChT = biological target: T1, rat VAChT (Rattus norvegicus, UniProt Q62666); test: [3H]Vesamicol competitive radioligand binding, PC12 cells expressing ratVAChT; settings: for specific binding in % of total binding (corrected by nonspecific binding NB), mean: rVAChT-PC12, 21°C, 1% DMSO
T1 construct: expressed in transfected cells; host or cells: rat PC12 (PC12 A123.7) cells, stably transfected; shared by Dr. Ali Roghani (Texas Tech University)
T1 sequence (Q62666 1-530): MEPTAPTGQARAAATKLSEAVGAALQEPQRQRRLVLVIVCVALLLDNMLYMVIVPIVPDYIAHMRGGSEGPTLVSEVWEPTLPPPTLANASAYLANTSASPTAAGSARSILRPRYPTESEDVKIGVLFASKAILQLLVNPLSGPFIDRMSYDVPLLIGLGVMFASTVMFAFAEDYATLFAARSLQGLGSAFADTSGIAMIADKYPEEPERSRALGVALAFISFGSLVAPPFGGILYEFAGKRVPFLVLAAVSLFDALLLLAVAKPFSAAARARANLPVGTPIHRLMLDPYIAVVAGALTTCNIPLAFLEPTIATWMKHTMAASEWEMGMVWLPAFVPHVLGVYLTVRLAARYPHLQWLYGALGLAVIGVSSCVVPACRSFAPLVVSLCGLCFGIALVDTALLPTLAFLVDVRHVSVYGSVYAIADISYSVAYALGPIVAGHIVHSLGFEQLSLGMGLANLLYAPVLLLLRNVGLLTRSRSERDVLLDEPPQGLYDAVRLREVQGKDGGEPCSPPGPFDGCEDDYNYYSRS

C. elegans [2] = test: C. elegans motor phenotype scoring on solid media (Punc/jerky-unc, coiled, paralyzed), wild-type young adults; assay type: in vivo, Caenorhabditis elegans; settings: for any phene (mean % fraction of young adults exhibiting any phenotype: coiled, jerky-Unc or paralyzed): one hour, mean of three biological replicates; for EC50: Caenorhabditis elegans, any motor phenotype after 1 h on solid media, ± 95% CI, read-out: C. elegans - motor disruption EC50
[3] = system: Dirofilaria immitis microfilariae; test: Dirofilaria immitis microfilariae immobility assay (DiroImager, 72 h); settings: for % effect (motility), DIROIM MF: Dirofilaria immitis microfilariae
How it was run: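 Motility read after 72 h drug exposure with an image-based high-throughput plate imager, 1% DMSO medium serving as negative control. Missouri-isolate microfilariae, roughly 250 per well, freshly purified and cultured in supplemented RPMI 1640.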

Pristionchus pacificus = Pristionchus pacificus motor disruption dose-response on solid media, 1 h; settings: for mean % any phene (coiled, jerky-Unc or paralyzed): Pristionchus pacificus young adults, mean of three biological replicates
C. elegans [4] = test: Suppression of trichlorfon (AChE inhibitor) paralysis, double dose-response, scored after 80 min; assay type: in vivo, Caenorhabditis elegans; settings: for EC50: Caenorhabditis elegans, ± 95% CI; for % para (percentage of animals able to adopt a clear sinusoidal wave pattern upon touch on the nose): wild-type, bio rep 1-3
[5] = 3.75uM, third c14 line of each analog
[6] = 15uM, second c14 line of each analog

Cc1ccc(N2CCN(C3CCC(C)C3)CC2)cc1 (centres unmarked) [Nemacol-41]
% effect (motility), DIROIM L4 ([1]; 2 µM): 5% | % effect (motility), DIROIM L4 ([1]; 10 µM): 5% | % effect (motility), DIROIM L4 ([1]; 50 µM): 20% | Ki (rat VAChT; [3H]Vesamicol binding, PC12, experiment 1, read-out: expt 1 Ki (M) vs. rat VAChT (PC12)): 4.82e-07 M | Ki (rat VAChT; [3H]Vesamicol binding, PC12, experiment 2, read-out: expt 2 Ki (M) vs. rat VAChT (PC12)): 3.76e-07 M | Ki (rat VAChT; [3H]Vesamicol binding, rat VAChT (PC12), mean of 2-3 experiments, read-out: mean Ki): 4.29e-07 M | any phene (mean % fraction of young adults exhibiting any phenotype: coiled, jerky-Unc or paralyzed) (C. elegans [2]; [5]): 58.3333% | any phene (mean % fraction of young adults exhibiting any phenotype: coiled, jerky-Unc or paralyzed) (C. elegans [2]; [6]): 98.3333% | any phene (mean % fraction of young adults exhibiting any phenotype: coiled, jerky-Unc or paralyzed) (C. elegans [2]; 60uM, first c14 line of each analog): 100% | EC50 (C. elegans [2]): 3.3 ± 1.4 µM | % effect (motility), DIROIM MF ([3]; 0.016 µM): 0% | % effect (motility), DIROIM MF ([3]; 0.08 µM): 0% | % effect (motility), DIROIM MF ([3]; 0.4 µM): 0% | % effect (motility), DIROIM MF ([3]; 2 µM): 0% | % effect (motility), DIROIM MF ([3]; 10 µM): 0% | mean % any phene (coiled, jerky-Unc or paralyzed) (Pristionchus pacificus; conc 3.75, observed at one hour): 9.167% | mean % any phene (coiled, jerky-Unc or paralyzed) (Pristionchus pacificus; conc 15, observed at one hour): 67.5% | mean % any phene (coiled, jerky-Unc or paralyzed) (Pristionchus pacificus; conc 60, observed at one hour): 100% | EC50 (Pristionchus pacificus; Pristionchus pacificus, 1 h, read-out: P. pacificus motor disruption EC50): 10.7 ± 1.2 µM

O[C@@H]1CCCC[C@H]1N1CCC(c2ccccc2)CC1 [minus Vesamicol]
specific binding in % of total binding (corrected by nonspecific binding NB), mean (rat VAChT; competitor 1.00E-05 M, experiment 2019-10-30, 2.92E-09 M 3H-vesamicol, 120 min): 0.0405% | specific binding in % of total binding (corrected by nonspecific binding NB), mean (rat VAChT; competitor 1.00E-05 M, experiment 2019-11-21, 2.20E-09 M 3H-vesamicol, 90 min): 1.18e-15% | specific binding in % of total binding (corrected by nonspecific binding NB), mean (rat VAChT; competitor 1.00E-06 M, experiment 2019-10-30, 2.92E-09 M 3H-vesamicol, 120 min): 5% | specific binding in % of total binding (corrected by nonspecific binding NB), mean (rat VAChT; competitor 1.00E-06 M, experiment 2019-11-21, 2.20E-09 M 3H-vesamicol, 90 min): 4% | specific binding in % of total binding (corrected by nonspecific binding NB), mean (rat VAChT; competitor 1.00E-07 M, experiment 2019-10-30, 2.92E-09 M 3H-vesamicol, 120 min): 29% | specific binding in % of total binding (corrected by nonspecific binding NB), mean (rat VAChT; competitor 1.00E-07 M, experiment 2019-11-21, 2.20E-09 M 3H-vesamicol, 90 min): 28% | specific binding in % of total binding (corrected by nonspecific binding NB), mean (rat VAChT; competitor 1.00E-08 M, experiment 2019-10-30, 2.92E-09 M 3H-vesamicol, 120 min): 79% | specific binding in % of total binding (corrected by nonspecific binding NB), mean (rat VAChT; competitor 1.00E-08 M, experiment 2019-11-21, 2.20E-09 M 3H-vesamicol, 90 min): 82% | specific binding in % of total binding (corrected by nonspecific binding NB), mean (rat VAChT; competitor 1.00E-09 M, experiment 2019-10-30, 2.92E-09 M 3H-vesamicol, 120 min): 94% | specific binding in % of total binding (corrected by nonspecific binding NB), mean (rat VAChT; competitor 1.00E-09 M, experiment 2019-11-21, 2.20E-09 M 3H-vesamicol, 90 min): 98% | specific binding in % of total binding (corrected by nonspecific binding NB), mean (rat VAChT; competitor 1.00E-10 M, experiment 2019-10-30, 2.92E-09 M 3H-vesamicol, 120 min): 97% | specific binding in % of total binding (corrected by nonspecific binding NB), mean (rat VAChT; competitor 1.00E-10 M, experiment 2019-11-21, 2.20E-09 M 3H-vesamicol, 90 min): 98% | specific binding in % of total binding (corrected by nonspecific binding NB), mean (rat VAChT; competitor 1.00E-11 M, experiment 2019-10-30, 2.92E-09 M 3H-vesamicol, 120 min): 95% | specific binding in % of total binding (corrected by nonspecific binding NB), mean (rat VAChT; competitor 1.00E-11 M, experiment 2019-11-21, 2.20E-09 M 3H-vesamicol, 90 min): 96%

COP(=O)(OC)C(O)C(Cl)(Cl)Cl (centres unmarked) [trichlorfon]
EC50 (C. elegans [4]; read-out: EC50 of trichlorfon paralysis, nemacol-1 15 μM): 132 ± 34 µM | EC50 (C. elegans [4]; read-out: EC50 of trichlorfon paralysis, nemacol-1 30 μM): 178 ± 17 µM | EC50 (C. elegans [4]; read-out: EC50 of trichlorfon paralysis, nemacol-1 60 μM): 138 ± 60 µM | EC50 (C. elegans [4]; read-out: EC50 of trichlorfon paralysis, trichlorfon alone): 83 ± 7 µM | EC50 (C. elegans [4]; read-out: EC50 of trichlorfon paralysis, vesamicol 31.3 μM): 102 ± 11 µM | EC50 (C. elegans [4]; read-out: EC50 of trichlorfon paralysis, vesamicol 62.5 μM): 121 ± 10 µM | EC50 (C. elegans [4]; read-out: EC50 of trichlorfon paralysis, vesamicol 125 μM): 145 ± 17 µM | EC50 (C. elegans [4]; read-out: EC50 of trichlorfon paralysis, vesamicol 250 μM): 180 ± 22 µM | EC50 (C. elegans [4]; read-out: EC50 of trichlorfon paralysis, vesamicol 500 μM): 201 ± 27 µM | % para (percentage of animals able to adopt a clear sinusoidal wave pattern upon touch on the nose) (C. elegans [4]; trichlorfon 25 uM, Nemacol-1 0 uM (Nemacol-1 series)): 92.8571% and 100% | % para (percentage of animals able to adopt a clear sinusoidal wave pattern upon touch on the nose) (C. elegans [4]; trichlorfon 25 uM, vesamicol 0 uM (vesamicol series)): 92.8571% and 100% | % para (percentage of animals able to adopt a clear sinusoidal wave pattern upon touch on the nose) (C. elegans [4]; trichlorfon 50 uM, Nemacol-1 0 uM (Nemacol-1 series)): 85.7143% and 75% and 67.8571% | % para (percentage of animals able to adopt a clear sinusoidal wave pattern upon touch on the nose) (C. elegans [4]; trichlorfon 50 uM, vesamicol 0 uM (vesamicol series)): 71.4286% and 75% and 96.4286% | % para (percentage of animals able to adopt a clear sinusoidal wave pattern upon touch on the nose) (C. elegans [4]; trichlorfon 100 uM, vesamicol 0 uM (vesamicol series)): 42.8571% and 50% | % para (percentage of animals able to adopt a clear sinusoidal wave pattern upon touch on the nose) (C. elegans [4]; trichlorfon 200 uM, Nemacol-1 0 uM (Nemacol-1 series)): 7.143% and 3.571% | % para (percentage of animals able to adopt a clear sinusoidal wave pattern upon touch on the nose) (C. elegans [4]; trichlorfon 400 uM, Nemacol-1 0 uM (Nemacol-1 series)): 0% | % para (percentage of animals able to adopt a clear sinusoidal wave pattern upon touch on the nose) (C. elegans [4]; trichlorfon 400 uM, vesamicol 0 uM (vesamicol series)): 0% and 3.571% | % para (percentage of animals able to adopt a clear sinusoidal wave pattern upon touch on the nose) (C. elegans [4]; trichlorfon 800 uM, Nemacol-1 0 uM (Nemacol-1 series)): 0% | % para (percentage of animals able to adopt a clear sinusoidal wave pattern upon touch on the nose) (C. elegans [4]; trichlorfon 800 uM, vesamicol 0 uM (vesamicol series)): 0%

O=[N+]([O-])c1ccc(N2CCN(C3CCCCCC3)CC2)cc1 [Nemacol-19]
% effect (motility), DIROIM L4 ([1]; 2 µM): 0% | % effect (motility), DIROIM L4 ([1]; 10 µM): 0% | % effect (motility), DIROIM L4 ([1]; 50 µM): 100% | Ki (rat VAChT; [3H]Vesamicol displacement, mean, read-out: ratVAChT Ki): 4.62e-07 M | any phene (mean % fraction of young adults exhibiting any phenotype: coiled, jerky-Unc or paralyzed) (C. elegans [2]; [5]): 43.3333% | any phene (mean % fraction of young adults exhibiting any phenotype: coiled, jerky-Unc or paralyzed) (C. elegans [2]; [6]): 97.5% | EC50 (C. elegans [2]): 4.1 ± 1.4 µM | % effect (motility), DIROIM MF ([3]; 0.016 µM): 0% | % effect (motility), DIROIM MF ([3]; 0.08 µM): 0% | % effect (motility), DIROIM MF ([3]; 0.4 µM): 0% | % effect (motility), DIROIM MF ([3]; 2 µM): 0% | % effect (motility), DIROIM MF ([3]; 10 µM): 40% | EC50 ([3]; Dirofilaria immitis, 72 h, read-out: Dirofilaria immitis filariae EC50): 10.7 µM

From publication PMC10066365, “Nemacol is a small molecule inhibitor of C. elegans vesicular acetylcholine transporter with anthelmintic potential” (Nature Communications, 2023)
